One data set has as its target T1, leucine aminopeptidase (Sus scrofa, UniProt P28839).
T1 construct: purchased Sigma, UK type III-CP (catalogue number not given); host or cells: porcine kidney
T1 sequence (P28839 1-519): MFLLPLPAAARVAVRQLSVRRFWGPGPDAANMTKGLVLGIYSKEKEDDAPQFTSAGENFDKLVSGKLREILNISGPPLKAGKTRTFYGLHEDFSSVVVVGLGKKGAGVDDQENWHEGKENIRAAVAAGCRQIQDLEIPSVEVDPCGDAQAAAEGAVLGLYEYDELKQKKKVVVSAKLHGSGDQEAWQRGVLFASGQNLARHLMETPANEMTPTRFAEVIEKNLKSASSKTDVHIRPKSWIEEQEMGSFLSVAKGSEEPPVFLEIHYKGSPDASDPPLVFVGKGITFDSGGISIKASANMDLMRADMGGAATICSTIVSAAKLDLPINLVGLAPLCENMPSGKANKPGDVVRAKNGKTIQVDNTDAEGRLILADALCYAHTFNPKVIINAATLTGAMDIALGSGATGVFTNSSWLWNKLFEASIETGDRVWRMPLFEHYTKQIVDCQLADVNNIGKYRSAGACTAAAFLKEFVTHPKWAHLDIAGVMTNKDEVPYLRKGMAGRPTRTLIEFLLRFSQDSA
The data set is described as follows: Hydrolysis kinetics in leucine aminopeptidase solution. It is filed as in vitro ADME, porcine. The note with it: 50 mM phosphate buffer pH 7.4, 37° C., leucine aminopeptidase 25 U/ml; for half-life: pig. As for the experimental part: (§1) Carboxypeptidase A (EC 3.4.17.1) type I from bovine pancreas, leucine aminopeptidase (EC 3.4.11.1) type III-CP from porcine kidney, α-chymotrypsin (EC […]) from bovine pancreas, and pepsin A (EC 3.4.23.1) from porcine stomach mucosa […] were obtained from Sigma, UK.
(§2) Gradient HPLC analysis of samples from in vitro kinetic measurements performed as described below was performed using a Hewlett Packard HP 1100 HPLC system consisting of a HP 1100 Binary Pump, a HPI 100 Autosampler, a HPI 100 Column Thermostat and a HP 1100 Variable Wavelength Detector. A Merck LiChroCART column (125×4 mm I.D.) and a LiChroCART precolumn (4×4 mm I.D.) packed with Lichrospher RP-18 (5 .μum particles) was used. The column was kept at 25° C. or 75° C. and the column effluent was measured by UV detection at 215 run. Separation of the peptide conjugates or the native peptides from degradation products and constituents of the reaction solutions was accomplished using gradient elution of the column with mixtures of mobile phase A (0.1 vol % TFA in water) and mobile phase B (0.085 vol % TFA in acetonitrile) at a flow rate of 1 ml/min.
(§3) The degradation of the peptide conjugate and the corresponding native peptide were studied at 37° C. in a 50 mM phosphate buffer solution at pH 7.4 containing leucine arninopeptidase (25 U/ml) or carboxypeptidase A (1 or 25 U/ml). Experiments were initiated by addition of an aliquot (100 μl) of a stock solution (1 mg/ml) of the peptide conjugate or the native peptide to 900 μl preheated enzyme solution giving a final concentration of ˜0.1 mg/ml (10^−5-10^−4M) of the peptide conjugate or the native peptide. The peptide/enzyme solution was kept at 37° C. using a SHT200D block heater from Stuart Scientific. At appropriate time intervals, samples of 100 μl were withdrawn from the peptide/enzyme solution, mixed thoroughly with 20 μl 25% TFA in acetonitrile in order to stop the enzymatic degradation process and analysed by HPLC as described above. Half-lives (t1/2) for the peptide conjugate and the corresponding native peptide in the enzyme solutions were calculated from plots of the natural logarithm to the concentration of the residual peptide (HPLC peak heights) against time using the formula t/2=1/kobs×ln(2), where kobs is the apparent first-order rate constant for the observed degradation.

The next data set addresses T2, carboxypeptidase A (Bos taurus, UniProt P00730).
T2 construct: purchased Sigma, UK type I (catalogue number not given); host or cells: bovine pancreas
T2 sequence (P00730 111-419): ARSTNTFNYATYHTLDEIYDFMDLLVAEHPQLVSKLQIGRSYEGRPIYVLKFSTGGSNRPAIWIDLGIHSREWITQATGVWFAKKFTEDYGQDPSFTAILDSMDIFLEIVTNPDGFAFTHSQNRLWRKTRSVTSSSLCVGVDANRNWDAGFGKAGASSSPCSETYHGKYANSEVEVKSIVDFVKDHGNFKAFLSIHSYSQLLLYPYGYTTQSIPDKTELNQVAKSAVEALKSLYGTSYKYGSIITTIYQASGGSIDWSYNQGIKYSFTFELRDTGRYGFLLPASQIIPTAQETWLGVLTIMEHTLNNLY
Put plainly: Hydrolysis kinetics in carboxypeptidase A solution. It is filed as in vitro ADME, bovine. Conditions: 50 mM phosphate buffer pH 7.4, 37° C., carboxypeptidase A 1 U/ml. How it is done:
as §1, §2, §3

Where a SMILES comes first, the peptide text is derived from it. Bridges are numbered along the chain shown (N, C = ends). Where no end group is shown, it is not given here. [ ]: non-standard residue; d: D form. Dab = NCC[C@H](N)C(=O)O

In general, half-life refers to how long it takes for the measured level to halve. Consider `CC(C)C[C@@H]1NC(=O)[C@@H]2CCCN2C(=O)CNC(=O)[C@H](Cc2ccccc2)NC(=O)[C@H](Cc2c[nH]cn2)NC(=O)[C@@H](NC(=O)[C@H](CO)NC(=O)[C@H](Cc2ccc(O)cc2)NC(=O)[C@@H](NC(=O)CNC(=O)CNC(=O)[C@H](CCCCN)NC(=O)[C@H](CCCCN)NC(=O)[C@H](CCCCN)NC(=O)[C@H](CCCCN)NC(=O)[C@H](CCCCN)NC(=O)[C@@H](N)CCCCN)[C@@H](C)O)CSSC[C@@H](C(=O)N[C@@H](CCCCN)C(=O)N2CCC[C@H]2C(=O)N[C@@H](CCC(N)=O)C(=O)NCC(=O)NCC(=O)N[C@@H](CCCCN)C(=O)N[C@@H](CCCCN)C(=O)N[C@@H](CCCCN)C(=O)N[C@@H](CCCCN)C(=O)N[C@@H](CCCCN)C(=O)N[C@@H](CCCCN)C(=O)O)NC(=O)[C@H](C(C)C)NC(=O)[C@H](Cc2c[nH]c3ccccc23)NC(=O)[C@H]([C@@H](C)O)NC1=O` [(Lys)6-EMP-1-(Lys)6-OH, H-(Lys)6-Gly-Gly-Thr-Tyr-Ser-Cys-His-Phe-Gly-Pro-Leu-Thr -Trp-Val-Cys-Lys-Pro-Gln-Gly-Gly-(Lys)6-OH] (H-KKKKKKGGTYSCHFGPLTWVCKPQGGKKKKKK-OH; disulfide 12-21), for which the half-life at leucine aminopeptidase is more than 100 h.

Take `CC(C)C[C@@H]1NC(=O)[C@@H]2CCCN2C(=O)CNC(=O)[C@H](Cc2ccccc2)NC(=O)[C@H](Cc2c[nH]cn2)NC(=O)[C@@H](NC(=O)[C@H](CO)NC(=O)[C@H](Cc2ccc(O)cc2)NC(=O)[C@@H](NC(=O)CNC(=O)CNC(=O)[C@H](CCCCN)NC(=O)[C@H](CCCCN)NC(=O)[C@H](CCCCN)NC(=O)[C@H](CCCCN)NC(=O)[C@H](CCCCN)NC(=O)[C@@H](N)CCCCN)[C@@H](C)O)CSSC[C@@H](C(=O)N[C@@H](CCCCN)C(=O)N2CCC[C@H]2C(=O)N[C@@H](CCC(N)=O)C(=O)NCC(=O)NCC(=O)O)NC(=O)[C@H](C(C)C)NC(=O)[C@H](Cc2c[nH]c3ccccc23)NC(=O)[C@H]([C@@H](C)O)NC1=O` [(Lys)6-EMP-1-OH, H-(Lys)6-Gly-Gly-Thr-Tyr-Ser-Cys-His-Phe-Gly-Pro-Leu -Thr-Trp-Val-Cys-Lys-Pro-Gln-Gly-Gly-OH] (H-KKKKKKGGTYSCHFGPLTWVCKPQGG-OH; disulfide 12-21): the half-life on leucine aminopeptidase is more than 24 h.

As for `CC[C@H](C)[C@H](NC(=O)[C@H](Cc1ccccc1)NC(=O)[C@H](CCC(=O)O)NC(=O)[C@H](CCCCN)NC(=O)[C@H](C)NC(=O)[C@H](C)NC(=O)[C@H](CCC(N)=O)NC(=O)CNC(=O)[C@H](CCC(=O)O)NC(=O)[C@H](CC(C)C)NC(=O)[C@H](Cc1ccc(O)cc1)NC(=O)[C@H](CO)NC(=O)[C@H](CO)NC(=O)[C@@H](NC(=O)[C@H](CC(=O)O)NC(=O)[C@H](CO)NC(=O)[C@@H](NC(=O)[C@H](Cc1ccccc1)NC(=O)[C@@H](NC(=O)CNC(=O)[C@H](CCC(=O)O)NC(=O)[C@H](C)NC(=O)[C@@H](N)Cc1c[nH]cn1)[C@@H](C)O)[C@@H](C)O)C(C)C)C(=O)N[C@@H](C)C(=O)N[C@@H](Cc1c[nH]c2ccccc12)C(=O)N[C@@H](CC(C)C)C(=O)N[C@H](C(=O)N[C@@H](CCCCN)C(=O)NCC(=O)N[C@@H](CCCNC(=N)N)C(=O)N[C@@H](CCCCN)C(=O)N[C@@H](CCCCN)C(=O)N[C@@H](CCCCN)C(=O)N[C@@H](CCCCN)C(=O)N[C@@H](CCCCN)C(=O)N[C@@H](CCCCN)C(=O)O)C(C)C` [GLP-1(7-36)(Human)-(Lys)6-OH, H-His-Ala-Glu-Gly-Thr-Phe-Thr-Ser-Asp-Val-Ser-Ser-Tyr-Leu -Glu-Gly-Gln-Ala-Ala-Lys-Glu-Phe-Ile-Ala-Trp-Leu-Val-Lys-Gly-Arg-(Lys)6-OH], at carboxypeptidase A, the half-life is 1.45 h and the “pseudo first-order rate constant for the degradation” value (“pseudo first-order rate constant” for short) was found to be 0.008 min⁻¹. For the same molecule, at leucine aminopeptidase, the “pseudo first-order rate constant” value came out at 0.013 min⁻¹ and the half-life stood at 0.883 h.

For `CC[C@H](C)[C@H](NC(=O)[C@H](Cc1ccccc1)NC(=O)[C@H](CCC(=O)O)NC(=O)[C@H](CCCCN)NC(=O)[C@H](C)NC(=O)[C@H](C)NC(=O)[C@H](CCC(N)=O)NC(=O)CNC(=O)[C@H](CCC(=O)O)NC(=O)[C@H](CC(C)C)NC(=O)[C@H](Cc1ccc(O)cc1)NC(=O)[C@H](CO)NC(=O)[C@H](CO)NC(=O)[C@@H](NC(=O)[C@H](CC(=O)O)NC(=O)[C@H](CO)NC(=O)[C@@H](NC(=O)[C@H](Cc1ccccc1)NC(=O)[C@@H](NC(=O)CNC(=O)[C@H](CCC(=O)O)NC(=O)[C@H](C)NC(=O)[C@@H](N)Cc1c[nH]cn1)[C@@H](C)O)[C@@H](C)O)C(C)C)C(=O)N[C@@H](C)C(=O)N[C@@H](Cc1c[nH]c2ccccc12)C(=O)N[C@@H](CC(C)C)C(=O)N[C@H](C(=O)N[C@@H](CCCCN)C(=O)NCC(=O)N[C@@H](CCCNC(=N)N)C(=O)O)C(C)C` [GLP-1(7-36)(Human)-OH, H-His-Ala-Glu-Gly-Thr-Phe-Thr-Ser-Asp-Val-Ser-Ser-Tyr-Leu -Glu-Gly-Gln-Ala-Ala-Lys-Glu-Phe-Ile-Ala-Trp-Leu-Val-Lys-Gly-Arg-OH, reference compound], on carboxypeptidase A, the half-life was determined as 2.47 h and the “pseudo first-order rate constant” value was 0.0047 min⁻¹. The molecule further showed a half-life on leucine aminopeptidase of 0.367 h.

As to `CC(C)C[C@H](NC(=O)[C@H](Cc1ccccc1)NC(=O)CNC(=O)CNC(=O)[C@@H](N)Cc1ccc(O)cc1)C(=O)N[C@@H](CCN)C(=O)N[C@@H](CCN)C(=O)N[C@@H](CCN)C(=O)N[C@@H](CCN)C(=O)N[C@@H](CCN)C(=O)N[C@@H](CCN)C(=O)O` [Leu-Enkephalin-(Dbu)6-OH, H-Tyr-Gly-Gly-Phe-Leu-(Dbu)6-OH] (H-YGGFL[Dab][Dab][Dab][Dab][Dab][Dab]-OH), the half-life at carboxypeptidase A is 23.1 h; at leucine aminopeptidase, 0.467 h. Also, the “pseudo first-order rate constant” value was determined as 0.005 min⁻¹ at carboxypeptidase A and 0.025 min⁻¹ on leucine aminopeptidase.

Take “H-KKKKKKYGGFL-OH [(Lys)6-Leu-Enkephalin-OH, H-Lys6 Tyr-Gly-Gly-Phe-Leu-OH]”: on leucine aminopeptidase, the “pseudo first-order rate constant” value came out at 0.026 min⁻¹ and the half-life came out at 0.45 h.

Regarding “H-RPKPQQFFGLMKKKKKK-NH2 [Substance P-(Lys)6-NH2, H-Arg-Pro-Lys-Pro-Gln-Gln-Phe-Phe-Gly-Leu-Met-Lys6 -NH2]”, on carboxypeptidase A, the half-life amounted to 2.1 h and the “pseudo first-order rate constant” value was 0.0055 min⁻¹. In addition, at leucine aminopeptidase, the “pseudo first-order rate constant” value is 0.011 min⁻¹ and the half-life turned out to be 1.1 h.

“H-WAGGDASGEKEKEKE-OH [DSIP-(Lys-Glu)3-OH, H-Trp-Ala-Gly-Gly-Asp-Ala-Ser-Gly-Glu-(Lys-Glu)3-OH]” showed a half-life at leucine aminopeptidase of 2.42 h.

As to “H-YGGFLKEEEKK-OH [Leu-Enkephalin-Lys-(Glu)3-(Lys)2-OH, H-Tyr-Gly-Gly-Phe-Leu-Lys-(Glu)3-(Lys)2-OH]”, on carboxypeptidase A, the half-life stood at 14.4 h and the “pseudo first-order rate constant” value turned out to be 0.0008 min⁻¹. On leucine aminopeptidase, the “pseudo first-order rate constant” value stood at 0.12 min⁻¹ and the half-life came out at 0.095 h.

On to “KKKKKKYGGFLKKKKKK [(Lys)6-Leu-Enkephalin-(Lys)6-OH, H-Lys6-Tyr-Gly-Gly-Phe-Leu-Lys6 OH]”, for which the half-life at leucine aminopeptidase was more than 100 h.

“WAGGDASGE [DSIP, H-Trp-Ala-Gly-Gly-Asp-Ala-Ser-Gly-GIu-OH, reference compound]” gave a half-life at leucine aminopeptidase of less than 0.333 h.
